Reference: patent US20200392116A1, “SUBSTITUTED HETEROCYCLES AS c-MYC TARGETING AGENTS” (NORTHWESTERN UNIVERSITY, priority 2019, published 2020)
pIC50: −log10 of the molar value. Like-named read-outs stand apart in the source and are kept apart here.

Assays:
[1] = system: MYC transcriptional activity (c-Myc E-box-luciferase reporter, MycCap cells); test: MYC E-box luciferase reporter assay; assay type: cell-based; conditions: Mus musculus, Myc-CaP
Procedure: To test the compounds, we evaluated the in silico hits in a MYC E-Box luciferase reporter assay to measure the effects of these compounds (referred to as Min-1 to Min-32) on MYC transcriptional activity. […] (See FIG. 2).
MycCap cells stably expressing luciferase with CMV promoter (MycCap-luc) or c-Myc E-box-luciferase reporter (MycCap Ebox-luc) were plated at 10000 cells per well in 96 well white-wall plate. Serial dilutions of 361 were treated next day. At 4 hours of treatment, luminescence signal was determined immediately after adding 150 μg/ml of Luciferin to the well. (See FIG. 12).

CMV reporter = CMV reporter assay (control reporter beside the Ebox reporter); assay type: cell-based
[2] = class symbols, read-out: Ebox reporter: IC50
[3] = given as numeric bound, read-out: Ebox reporter: IC50
[4] = class symbols, read-out: Eboc reporter IC50

SMILES | pIC50 [1, 2] | pIC50 (CMV reporter) | pIC50 [1, 3] | pIC50 [1, 4] | pIC50 (CMV reporter; class symbols)
Cn1nc(-c2ccc(OCc3ccc(Cl)cc3)c(-c3ccc(Cl)c(C(F)(F)F)c3)c2O)cc1C(=O)O [NUCC-0202525] | 4.30 to 5.00 | < 4.30 | – | – | –
Cn1nc(-c2ccc(N(Cc3ccc(Cl)cc3)C(=O)c3cccc(S(C)(=O)=O)c3)cc2O)cc1C(F)(F)F [NUCC-0202721] | – | < 4.30 | < 4.30 | – | –
COc1ccc(-c2cc(C(F)(F)F)nn2C)c(O)c1-c1ccc(Cl)c(C(F)(F)F)c1 [NUCC-0202429] | > 5.30 | < 4.30 | – | – | –
O=C(Nc1ccc(Cl)c(C(F)(F)F)c1)c1ccc(-c2cc(C(F)(F)F)n[nH]2)c(O)c1 [NUCC-0202992] | – | – | – | 5.00 to 5.30 | 4.30 to 5.00
Cn1nc(C(F)(F)F)cc1-c1ccc(C(=O)Nc2ccc(Cl)c(C(F)(F)F)c2)cc1O [NUCC-0202984] | – | – | – | > 5.30 | 4.30 to 5.00
Cn1nc(-c2ccc(N(Cc3ccc(Cl)cc3)C(=O)c3ccnc(C(F)(F)F)c3)cc2O)cc1C(F)(F)F [NUCC-0202696] | – | < 4.30 | < 4.30 | – | –
Cn1nc(C(F)(F)F)cc1-c1ccc(N(Cc2ccc(Cl)cc2)C(=O)c2cccc(Cl)c2)cc1O [NUCC-0202704] | > 5.30 | < 4.30 | – | – | –
Cn1nc(-c2ccc(N(Cc3ccc(Cl)cc3)C(=O)c3ccc(Cl)cc3C(F)(F)F)cc2O)cc1C(F)(F)F [NUCC-0202710] | – | < 4.30 | < 4.30 | – | –
CN(C)C(=O)c1cc(-c2ccc(OCc3ccc(Cl)cc3)c(-c3ccc(Cl)c(C(F)(F)F)c3)c2O)nn1C [NUCC-0202531] | – | < 4.30 | < 4.30 | – | –
Cn1nc(C(F)(F)F)cc1-c1ccc(OCc2ccc(Cl)cc2)c(-c2ccc(Cl)c(C(F)(F)F)c2)c1F [NUCC-0202641] | – | < 4.30 | < 4.30 | – | –
COc1c(C(F)(F)F)n[nH]c1-c1ccc(OCc2ccc(Cl)cc2)cc1O [NUCC-0202639] | 5.00 to 5.30 | 4.49 | – | – | –
Cn1nc(-c2ccc(N(Cc3ccc(Cl)cc3)C(=O)c3ccc4nccn4c3)cc2O)cc1C(F)(F)F [NUCC-0202725] | 4.30 to 5.00 | < 4.30 | – | – | –
Cn1nc(C(F)(F)F)cc1-c1ccc(N(Cc2ccc(Cl)cc2)C(=O)c2ccnc(C(F)(F)F)c2)cc1O [NUCC-0202700] | > 5.30 | < 4.30 | – | – | –
Cn1nc(C(F)(F)F)cc1-c1ccc(OCc2ccc(Cl)cc2)c(-c2ccc(Cl)c(C(F)(F)F)c2)c1O [NUCC-0202538] | – | < 4.30 | < 4.30 | – | –
Cn1nc(C(F)(F)F)cc1-c1ccc(N(Cc2ccc(Cl)cc2)C(=O)c2ccccc2C(F)(F)F)cc1O [NUCC-0202723] | 5.00 to 5.30 | < 4.30 | – | – | –
Cn1nc(-c2ccc(CNc3ccc(Cl)cc3)c(-c3ccc(Cl)c(C(F)(F)F)c3)c2O)cc1C(F)(F)F [NUCC-0202417] | – | < 4.30 | < 4.30 | – | –
Cc1cc(-c2ccc(OCc3ccc(Cl)cc3)c(-c3ccc(Cl)c(C(F)(F)F)c3)c2O)nn1C [NUCC-0202534] | – | < 4.30 | < 4.30 | – | –
Cn1nc(-c2ccc(COc3ccc(Cl)cc3)c(-c3ccc(Cl)c(C(F)(F)F)c3)c2O)cc1C(F)(F)F [NUCC-0202421] | – | < 4.30 | < 4.30 | – | –
Cn1nc(-c2c(Cl)cc(OCc3ccc(Cl)cc3)c(-c3ccc(Cl)c(C(F)(F)F)c3)c2O)cc1C(F)(F)F [NUCC-0202988] | – | – | – | < 4.30 | < 4.30
CC(Oc1ccc(-c2cc(C(F)(F)F)nn2C)c(O)c1-c1ccc(Cl)c(C(F)(F)F)c1)c1ccc(Cl)cc1 (centres unmarked) [NUCC-0202418] | 5.00 to 5.30 | < 4.30 | – | – | –
Cn1nc(-c2ccc(C(=O)Nc3ccc(Cl)c(C(F)(F)F)c3)cc2O)cc1C(F)(F)F [NUCC-0202985] | – | – | – | < 4.30 | < 4.30
CN(C(=O)c1ccc(-c2cc(C(F)(F)F)n[nH]2)c(O)c1)c1ccc(Cl)c(C(F)(F)F)c1 [NUCC-0202989] | – | – | – | 4.30 to 5.00 | 4.30 to 5.00

SMILES | pIC50 [1, 2] | pIC50 (CMV reporter) | pIC50 [1, 3] | pIC50 [1, 4] | pIC50 (CMV reporter; class symbols)
Cn1nc(C(F)(F)F)cc1-c1ccc(N(Cc2ccc(Cl)cc2)C(=O)c2ccc(C(F)(F)F)cc2)cc1O [NUCC-0202713] | 5.00 to 5.30 | < 4.30 | – | – | –
CNC(=O)c1cc(-c2ccc(OCc3ccc(Cl)cc3)c(-c3ccc(Cl)c(C(F)(F)F)c3)c2O)nn1C [NUCC-0202529] | 4.30 to 5.00 | < 4.30 | – | – | –
Cn1nc(-c2cc(Cl)c(OCc3ccc(Cl)cc3)c(-c3ccc(Cl)c(C(F)(F)F)c3)c2O)cc1C(F)(F)F [NUCC-0202642] | – | < 4.30 | < 4.30 | – | –
Cn1nc(-c2ccc(N(Cc3ccc(Cl)cc3)C(=O)c3ccccc3F)cc2O)cc1C(F)(F)F [NUCC-0202716] | – | < 4.30 | < 4.30 | – | –
Cn1nc(-c2ccc(OC3CCOCC3)c(-c3ccc(Cl)c(C(F)(F)F)c3)c2O)cc1C(F)(F)F [NUCC-0202428] | – | < 4.30 | < 4.30 | – | –
Cn1nc(C(F)(F)F)cc1-c1ccc(N(Cc2ccc(Cl)cc2)C(=O)c2ccccc2Cl)cc1O [NUCC-0202712] | 4.30 to 5.00 | < 4.30 | – | – | –
Cn1nc(C(F)(F)F)cc1-c1ccc(N(Cc2ccc(Cl)cc2)C(=O)c2cncc(C#N)c2)cc1O [NUCC-0202724] | 5.00 to 5.30 | < 4.30 | – | – | –
Cn1nc(-c2ccc(N(Cc3ccc(Cl)cc3)C(=O)c3cccc(Cl)c3)cc2O)cc1C(F)(F)F [NUCC-0202699] | – | < 4.30 | < 4.30 | – | –
Oc1c(-c2cc(C(F)(F)F)n[nH]2)ccc(OCc2ccc(Cl)cc2)c1Oc1ccc(F)cn1 [NUCC-0202435] | 4.30 to 5.00 | < 4.30 | – | – | –
Cn1nc(-c2ccc(N(Cc3ccc(Cl)cc3)C(=O)c3ccc(C(F)(F)F)cc3Cl)cc2O)cc1C(F)(F)F [NUCC-0202708] | – | < 4.30 | < 4.30 | – | –
CN(C)C(=O)c1cc(-c2ccc(OCc3ccc(Cl)cc3)c(-c3ccc(Cl)c(C(F)(F)F)c3)c2O)[nH]n1 [NUCC-0202523] | – | < 4.30 | < 4.30 | – | –
Cn1nc(C(F)(F)F)cc1-c1cnc(OCc2ccc(Cl)cc2)c(-c2ccc(Cl)c(C(F)(F)F)c2)c1O [NUCC-0202686] | > 5.30 | 4.51 | – | – | –
Cn1nc(-c2ccc(OC3CCNCC3)c(-c3ccc(Cl)c(C(F)(F)F)c3)c2O)cc1C(F)(F)F [NUCC-0202432] | 4.30 to 5.00 | 4.55 | – | – | –
Cn1nc(C(F)(F)F)cc1-c1ccc(N(Cc2ccc(Cl)cc2)C(=O)c2ccc(C(F)(F)F)c(Cl)c2)cc1O [NUCC-0202423] | > 5.30 | < 4.30 | – | – | –
CN(C)C(=O)c1cc(-c2ccc(OCc3ccc(Cl)cc3)c(-c3ccc(Cl)c(C(F)(F)F)c3)c2O)n(C)n1 [NUCC-0202527] | 4.30 to 5.00 | < 4.30 | – | – | –
Cn1nc(C(F)(F)F)cc1-c1cc(Cl)c(OCc2ccc(Cl)cc2)c(-c2ccc(Cl)c(C(F)(F)F)c2)c1O [NUCC-0202648] | > 5.30 | < 4.30 | – | – | –
Cn1nc(C(F)(F)F)cc1-c1ccc(OCc2ccc(Cl)cc2)c(-c2ccc(Cl)c(C(F)(F)F)c2)c1Cl [NUCC-0202650] | – | < 4.30 | < 4.30 | – | –
Cn1nc(C(F)(F)F)cc1-c1ccc(N(Cc2ccc(Cl)cc2)C(=O)c2ccc(Cl)cc2C(F)(F)F)cc1O [NUCC-0202709] | 5.00 to 5.30 | < 4.30 | – | – | –
Cn1nc(-c2ccc(N(Cc3ccc(Cl)cc3)C(=O)c3ccc(C(F)(F)F)cc3)cc2O)cc1C(F)(F)F [NUCC-0202714] | – | < 4.30 | < 4.30 | – | –
O=c1cc(C(F)(F)F)oc2cc(NCc3ccc(Cl)cc3)ccc12 [NUCC-0202436] | 4.30 to 5.00 | < 4.30 | – | – | –
NC(=O)c1cc(-c2ccc(OCc3ccc(Cl)cc3)c(-c3ccc(Cl)c(C(F)(F)F)c3)c2O)[nH]n1 [NUCC-0202521] | 4.30 to 5.00 | 4.47 | – | – | –
